Reference: patent publication US20190151289A1, “Identification of Small Molecule Inhibitors of Jumonji AT-Rich Interactive Domain 1A (JARID1A) Histone Demethylase” (YALE UNIVERSITY, priority 2016, published 2019)

How the values were obtained:
[1] = test system: H3K4 methylation in MCF10A cells; experiment: Western blot of global H3K4 methylation, MCF10A; format: cell-based, human; settings: 72 hr treatment
Protocol: (§1) Sf21 insect cells were cultured at 27° C. in Grace's medium (Gibco) with 10% fetal bovine serum (FBS) and 1% penicillin/streptomycin. HeLa cells were cultured in DMEM (Gibco) with 10% FBS and 1% penicillin/streptomycin. BT474, MCF7, MDA-MB-231, PC9 and ZR-75-1 cells were cultured in RPMI 1640 (Gibco) with 10% FBS and 1% penicillin/streptomycin. MCF10A cells were cultured as using previously described methods (Sayegh et al., 2013, J. Biol. Chem. 9408-9417). All human cells were cultured at 37° C. and 5% carbon dioxide. HeLa and MCF7 cell lines were authenticated using short tandem repeat profiling performed at the DNA Analysis Facility on Science Hill at Yale University. All other human cell lines used were within 10 passages after being obtained from the American Type Culture Collection.
(§2) Cells were lysed using previously described methods (Lin et al., 2011, Proc. Natl. Acad. Sci. U.S.A. 108:13379-13386). Histones were separated by centrifugation, resuspended in Laemmeli buffer, and sonicated. Protein concentration of cell lysates was measured by Bradford assay. Samples in Laemmeli buffer were boiled 10 minutes at 95° C. and loaded onto 7% (whole cell lysates) or 18% (histones) SDS-PAGE gels. […] Signal was quantified using ImageJ software.

PC9 cells = experiment: Colony formation assay, PC9 (gefitinib tolerance); format: cell-based, human
Protocol: (§3) Cells were seeded in 6-well plates at low density: HeLa, MCF7, BT474, and PC9 cells at 1000, 2000, 2500, and 2000 cells/well respectively. Media containing the prescribed drugs or 0.1% DMSO was replaced every 3 days. Trastuzumab was used at 5 μg/ml. Gefitinib was used at 2 μM. YUKA1 was used at 50 or 100 μM. Doxycycline was used at 1 μg/ml for 3 days. After 7-42 days depending on the rate of cell growth, cells were fixed in 4% para-formaldehyde in phosphate-buffered saline for 10 minutes rocking at room temperature. They were incubated in 0.05% crystal violet in double-distilled water for 30 minutes rocking at room temperature, washed with water, and dried 24 hours before photographing. ColonyArea, a plugin for ImageJ software, was used for quantification (Guzman et al., 2014, PloS One 9:e92444). Unpaired, two-tailed student's t-test was used to determine significance using GraphPad Prism 6.0 software.

MCF10A cells = experiment: WST-1 cell proliferation assay, MCF10A; format: cell-based, human; settings: 5 days of treatment
Protocol: (§4) WST-1 reagent from Roche Applied Sciences (11644807001) was used to measure cell number before drug addition and after 3 or 5 days of growth using previously described methods (Sayegh et al., 2013, J. Biol. Chem. 9408-9417). Cells were seeded in 96-well plates at the following number of cells per well: HeLa (2000), MCF7 (2000), ZR-75-1 (1000), MCF10A (1000), MDA-MB-231(5000). Assays were performed in technical quadruplicates and biological triplicates. DMSO was used at 0.1%. Relative absorbance was calculated by subtracting the average background (media only) signal, dividing by the average signal on day 0, and then dividing by the average day 5/day 0 ratio for the DMSO controls. Significance was calculated by unpaired, two-tailed student's t-test using GraphPad Prism 6.0 software.

ZR-75-1 cells = experiment: WST-1 cell proliferation assay, ZR-75-1; format: cell-based, human; settings: ZR-75-1, 5 days of treatment
Protocol: as §4

BT474 cells = experiment: Colony formation assay, BT474 (trastuzumab tolerance); format: cell-based, human
Protocol: as §3

[2] = test system: H3K4 methylation in ZR-75-1 cells; experiment: Western blot of global H3K4 methylation, ZR-75-1; format: cell-based, human; settings: ZR-75-1, 48 hour treatment
Protocol: as §1, §2

[3] = test system: H3K4 methylation in MDA-MB-231 cells; experiment: Western blot of global H3K4 methylation, MDA-MB-231; format: cell-based, human; settings: MDA-MB-231, 72 hr treatment
Protocol: as §1, §2

HeLa cells = experiment: WST-1 cell proliferation assay, HeLa; format: cell-based, human; settings: after 3 days
Protocol: as §4

KDM5C = target: T1, KDM5C (Homo sapiens, UniProt P41229); experiment: AlphaScreen KDM5C demethylation assay; format: biochemical
T1 construct: FLAG; made in house
T1 sequence (P41229 whole entry): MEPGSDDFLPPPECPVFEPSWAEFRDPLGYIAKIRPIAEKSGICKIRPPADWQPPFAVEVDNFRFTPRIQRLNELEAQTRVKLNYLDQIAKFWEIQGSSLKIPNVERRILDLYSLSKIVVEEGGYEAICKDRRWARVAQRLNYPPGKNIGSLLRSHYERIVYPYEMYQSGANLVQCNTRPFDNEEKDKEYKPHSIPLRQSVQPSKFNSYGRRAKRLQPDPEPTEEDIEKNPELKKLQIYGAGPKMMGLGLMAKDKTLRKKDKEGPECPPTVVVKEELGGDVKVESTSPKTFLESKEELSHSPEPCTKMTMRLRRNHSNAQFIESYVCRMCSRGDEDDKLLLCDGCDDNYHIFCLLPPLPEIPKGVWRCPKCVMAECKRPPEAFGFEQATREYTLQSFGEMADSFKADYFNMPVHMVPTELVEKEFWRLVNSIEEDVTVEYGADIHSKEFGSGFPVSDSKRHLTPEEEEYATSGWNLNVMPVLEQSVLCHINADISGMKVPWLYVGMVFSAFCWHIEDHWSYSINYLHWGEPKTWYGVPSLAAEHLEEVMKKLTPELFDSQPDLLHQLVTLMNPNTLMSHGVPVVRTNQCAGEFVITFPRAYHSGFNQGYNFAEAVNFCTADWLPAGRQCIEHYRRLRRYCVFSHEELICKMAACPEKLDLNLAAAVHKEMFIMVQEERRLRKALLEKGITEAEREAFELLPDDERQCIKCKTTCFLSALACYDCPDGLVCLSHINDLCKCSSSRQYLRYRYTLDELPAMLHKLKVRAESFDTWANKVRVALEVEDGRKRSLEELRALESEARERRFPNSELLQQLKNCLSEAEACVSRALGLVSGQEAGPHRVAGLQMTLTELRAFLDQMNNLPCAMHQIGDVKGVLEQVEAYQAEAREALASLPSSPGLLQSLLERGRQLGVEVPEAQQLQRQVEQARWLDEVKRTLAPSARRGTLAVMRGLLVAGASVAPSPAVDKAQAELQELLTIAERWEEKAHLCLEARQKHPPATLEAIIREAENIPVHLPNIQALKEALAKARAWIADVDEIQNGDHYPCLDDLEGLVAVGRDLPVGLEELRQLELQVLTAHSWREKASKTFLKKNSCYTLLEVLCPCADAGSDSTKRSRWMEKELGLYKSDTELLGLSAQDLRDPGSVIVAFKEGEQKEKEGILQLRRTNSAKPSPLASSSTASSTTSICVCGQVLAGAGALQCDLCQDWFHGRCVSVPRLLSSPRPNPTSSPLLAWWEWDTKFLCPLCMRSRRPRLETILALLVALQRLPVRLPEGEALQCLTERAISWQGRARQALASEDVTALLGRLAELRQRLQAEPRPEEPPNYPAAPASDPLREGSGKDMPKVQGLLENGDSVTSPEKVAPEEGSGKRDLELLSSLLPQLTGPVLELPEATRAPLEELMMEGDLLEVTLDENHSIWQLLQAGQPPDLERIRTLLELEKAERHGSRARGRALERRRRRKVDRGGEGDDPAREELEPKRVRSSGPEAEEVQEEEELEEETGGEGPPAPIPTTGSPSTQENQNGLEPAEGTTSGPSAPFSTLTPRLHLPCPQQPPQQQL
Protocol: Histone demethylase assays were performed using previously described methods (Sayegh et al., 2013, J. Biol. Chem. 9408-9417), with the exception of all enzyme reactions containing 125 μM α-KG. Enzymes were used at the following approximate concentrations in validation experiments, chosen based on their activity in AlphaScreen assays: 19 nM FLAG-KDM5A, 15 nM FLAG-KDM5B, 6 nM FLAG-KDM5C, 29 nM His-FLAG-KDM6A, and 16 nM FLAG-KDM6B. 24 nM FLAG-KDM5A was used for Km determination experiments. Reactions were carried out for 1 hour, or were stopped by addition of 30 mM EDTA every 5 minutes for determining enzyme kinetics. Km values were calculated using the Michaelis-Menten non-linear regression analysis on GraphPad Prism 6.0 software. The concentration of DMSO in demethylation reactions was 0.05%. For reactions with catalase, catalase (Sigma C30) or an equal volume of dilution buffer was added to the peptide-containing buffer before addition of the demethylase. The final concentration of catalase in the reactions was 0.01 mg/ml.
The AlphaScreen general IgG (protein A) detection kit from PerkinElmer Life Sciences was used as described previously (Sayegh et al., 2013, J. Biol. Chem. 9408-9417). The luminescence emission was recorded at 570 nm using the AlphaScreen optic module on a Pherastar (BMG Labtech) or Envision (PerkinElmer Life Sciences) microplate reader.

[4] = test system: H3K4 methylation in HeLa cells; experiment: Western blot of global H3K4 methylation, HeLa; format: cell-based, human
Protocol: as §1
Cells were lysed using previously described methods (Lin et al., 2011, Proc. Natl. Acad. Sci. U.S.A. 108:13379-13386). Histones were separated by centrifugation, resuspended in Laemmeli buffer, and sonicated. Protein concentration of cell lysates was measured by Bradford assay. Samples in Laemmeli buffer were boiled 10 minutes at 95° C. and loaded onto 7% (whole cell lysates) or 18% (histones) SDS-PAGE gels. Membranes were blocked in 4% non-fat milk in Tris-buffered saline with 0.05% Tween (TBS-T) and incubated with primary antibodies in the same buffer or 5% bovine serum albumin in TBS-T overnight at 4° C. Membranes were incubated with secondary anti-rabbit or anti-mouse antibodies for one hour at room temperature. Blots were visualized by Thermo Scientific Pierce ECL Western Blotting Substrate (32106) or EMD Millipore Immobilon Western Chemiluminescent HRP Substrate (WBKLS0100) on film. Signal was quantified using ImageJ software.

fold less active against KDM5C (vs KDM5A) (KDM5C): ~3 fold
SMILES: C=CCOc1c(CNn2cnnc2S)cccc1OC [YUKA1, 4-([2-(allyloxy)-3-methoxybenzyl]amino)-4H-1,2,4-triazole-3-thiol]
H3K4 methylation levels [1]: did not affect H3K4 methylation levels | cell growth, compound alone (PC9 cells; PC9, compound alone): not significantly affected | colony formation under gefitinib vs DMSO control (PC9 cells; PC9, long-term treatment with 2 μM gefitinib plus compound): fewer YUKA1-treated cells formed colonies | cell proliferation (MCF10A cells): did not hinder cell proliferation | cell proliferation (ZR-75-1 cells): decreased cell proliferation during 5 days of treatment in a dose-dependent manner | cell growth, compound alone (BT474 cells; BT474, compound alone): not changed | emergence of colonies under trastuzumab (BT474 cells; BT474, trastuzumab 5 μg/ml plus compound): significantly less | global H3K4me3 levels [2]: increased global H3K4me3 levels | H3K4 methylation [3]: only minor changes | cell proliferation relative to DMSO (HeLa cells): less than half of DMSO-treated cells | H3K4me2 and H3K4me1 levels ([4]; HeLa): increased | cell activity by global H3K4 methylation changes ([4]; HeLa and MCF7 cell lines, western blot): cell-active | global H3K4me3 levels ([4]; HeLa, 48 hour treatment): dose-dependent increase
